Data published in patent US20130065868A1, “ANXIOYTIC MARCGRAVIACEAE COMPOSITIONS CONTAINING BETULINIC ACID, BETULINIC ACID DERIVATIVES, AND METHODS” (UNIVERSITY OF OTTAWA, priority 2002, published 2013).
Like-named read-outs stand apart in the source and are kept apart here.

Columns and labels:
Sprague-Dawley rats = assay: Fear-potentiated startle paradigm in rats; format: in vivo, rat
Excerpt: In this anxiety/fear paradigm, rats are first trained to associate a neutral stimulus (a light) with an aversive stimulus (an electric shock to the foot). […] However, when the acoustic stimulus is preceded by a fear cue (the light in this case), there is potentiation of their natural startle response. This potentiation of startle responses is thought to result from a classically conditioned increase in fear. Anxiolysis is inferred when there is a reduction in the magnitude of the fear-potentiated startle response.
The fear potentiated startle equipment (Med-Associates, St-Albans, Vt.) constituted (1) a pressure-sensitive platform upon which the animal is placed (in an enclosure with shock-grid floor), (2) Speakers and amplifier, to deliver acoustic stimulus, (3) Computer controlled light cue, and (4) a computerized interface to deliver the auditory and/or visual stimuli, and to record the magnitude of startle detected by the platform. The whole set up is housed in a sound attenuated and darkened chamber.
The experiment involved three phases; a training phase, a screening phase and the testing phase. […] The second or screening phase involved identifying the rats that learnt to associate the light cue with the shock, which was assessed by measuring their startle response in the absence and the presence of the fear cue. […]

CD-1 strain of mice = assay: Elevated plus maze test in CD-1 mice; format: in vivo, mouse; conditions: for entries into the open (anxiogenic) arm of the elevated plus maze: 45-60 min, vs peanut oil control
Procedure: Previous experiments were all conducted in experimental rats. Here we tested the effect of betulinic acid on CD-1 strain of mice. Mice received 0.25 or 2.5 mg/kg of betulinic acid, or peanut oil only (control), intra peritoneally (“i.p.”), and were tested 45-60 minutes later in the elevated plus maze test.

[1] = Elevated plus maze, betulinic acid vs structurally related compounds (Example 11); format: in vivo; conditions: 0.5 mg/kg (FIG. 7)
Excerpt: This example compares the anxiolytic activity of betulinic acid and some other structurally related compounds. Results are illustrated in FIG. 7.

Sprague Dawley rats = assay: Locomotor activity after chronic administration; format: in vivo, rat; conditions: chronic 0.5 mg/kg daily orally, one night 5 p.m. to 7 a.m. (FIG. 11)
Procedure: Test animals and drug treatments were as in Example 14. Locomotor activity was recorded for one night (5 p.m. to 7 a.m. the following morning) in the control as well as in the betulinic acid and methyl ester of betulinic acid exposed groups. Locomotor activity was monitored using infrared sensors located on the roof of the animals' cage. Eight independent sensors monitored activity of animals according to the number of quadrants traversed.

MAO A = MAO A (Homo sapiens, UniProt P21397); assay: MDS Panlabs screen: MAO A; format: biochemical; conditions: Catecholamines
Sequence of MAO A (P21397 whole entry, species assumed): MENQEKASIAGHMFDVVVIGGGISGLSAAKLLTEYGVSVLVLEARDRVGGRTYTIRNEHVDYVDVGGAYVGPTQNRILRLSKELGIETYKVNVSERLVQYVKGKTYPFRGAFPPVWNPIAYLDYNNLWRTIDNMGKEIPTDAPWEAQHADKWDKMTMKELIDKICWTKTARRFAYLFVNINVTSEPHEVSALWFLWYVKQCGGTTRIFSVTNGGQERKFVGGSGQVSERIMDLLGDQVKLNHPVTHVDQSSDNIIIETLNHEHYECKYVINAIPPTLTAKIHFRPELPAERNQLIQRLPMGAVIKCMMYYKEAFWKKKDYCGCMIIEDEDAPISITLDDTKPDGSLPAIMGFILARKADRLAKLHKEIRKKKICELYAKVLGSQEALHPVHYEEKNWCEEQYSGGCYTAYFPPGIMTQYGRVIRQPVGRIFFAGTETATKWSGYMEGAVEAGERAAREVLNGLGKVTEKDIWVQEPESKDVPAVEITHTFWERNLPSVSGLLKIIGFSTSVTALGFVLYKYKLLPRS
Procedure: (§1) Tests were conducted by MDS Panlabs to determine whether any of the classical neurotransmitter systems or the peptidergic systems thought to play a role in anxiety are affected by betulinic acid.

NE transporter = NE transporter (Homo sapiens, UniProt P23975); assay: MDS Panlabs screen: NE transporter; format: binding; conditions: Catecholamines
Sequence of NE transporter (P23975 whole entry): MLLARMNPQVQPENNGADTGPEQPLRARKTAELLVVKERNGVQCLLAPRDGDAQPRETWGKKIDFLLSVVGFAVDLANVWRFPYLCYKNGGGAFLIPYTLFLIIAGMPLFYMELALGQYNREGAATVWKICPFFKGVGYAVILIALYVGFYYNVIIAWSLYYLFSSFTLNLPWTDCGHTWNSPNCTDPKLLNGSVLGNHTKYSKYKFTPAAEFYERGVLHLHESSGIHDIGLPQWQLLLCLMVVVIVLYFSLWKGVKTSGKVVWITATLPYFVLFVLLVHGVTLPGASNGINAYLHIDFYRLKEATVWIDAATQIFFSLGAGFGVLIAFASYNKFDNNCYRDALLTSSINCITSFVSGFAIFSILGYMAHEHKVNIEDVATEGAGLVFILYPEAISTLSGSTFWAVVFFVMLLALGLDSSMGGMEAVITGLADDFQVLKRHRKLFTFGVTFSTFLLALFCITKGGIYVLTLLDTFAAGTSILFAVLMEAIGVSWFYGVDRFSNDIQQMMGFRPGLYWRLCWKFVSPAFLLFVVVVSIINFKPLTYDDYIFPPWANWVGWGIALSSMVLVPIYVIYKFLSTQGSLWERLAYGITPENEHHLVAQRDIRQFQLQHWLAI
Procedure: as §1

GABAA, agonist site = assay: MDS Panlabs screen: GABAA, agonist site; format: binding; conditions: Gabaergic
Procedure: as §1

Glutamate non-selective = assay: MDS Panlabs screen: Glutamate non-selective; format: binding; conditions: Gabaergic
Procedure: as §1

Histamine H2 = Histamine H2 (Homo sapiens, UniProt P25021); assay: MDS Panlabs screen: Histamine H2; format: binding
Sequence of Histamine H2 (P25021 whole entry): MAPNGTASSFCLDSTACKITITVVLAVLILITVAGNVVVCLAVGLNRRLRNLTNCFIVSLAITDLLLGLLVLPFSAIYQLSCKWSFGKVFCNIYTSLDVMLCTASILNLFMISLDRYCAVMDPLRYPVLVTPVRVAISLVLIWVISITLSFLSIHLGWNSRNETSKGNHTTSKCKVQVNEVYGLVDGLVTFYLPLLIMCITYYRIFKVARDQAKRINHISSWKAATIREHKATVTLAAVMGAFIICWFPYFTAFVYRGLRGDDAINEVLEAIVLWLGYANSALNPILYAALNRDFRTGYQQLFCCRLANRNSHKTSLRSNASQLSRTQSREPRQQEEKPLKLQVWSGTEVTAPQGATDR
Procedure: as §1

5-HT1 = assay: MDS Panlabs screen: 5-HT1; format: binding; conditions: Serotonin (5-HT)
Procedure: as §1

cannabinoid C131 = cannabinoid C131 (Homo sapiens, UniProt P21554); assay: MDS Panlabs screen: cannabinoid (first subtype); format: binding; conditions: Peptides
Sequence of cannabinoid C131 (P21554 whole entry): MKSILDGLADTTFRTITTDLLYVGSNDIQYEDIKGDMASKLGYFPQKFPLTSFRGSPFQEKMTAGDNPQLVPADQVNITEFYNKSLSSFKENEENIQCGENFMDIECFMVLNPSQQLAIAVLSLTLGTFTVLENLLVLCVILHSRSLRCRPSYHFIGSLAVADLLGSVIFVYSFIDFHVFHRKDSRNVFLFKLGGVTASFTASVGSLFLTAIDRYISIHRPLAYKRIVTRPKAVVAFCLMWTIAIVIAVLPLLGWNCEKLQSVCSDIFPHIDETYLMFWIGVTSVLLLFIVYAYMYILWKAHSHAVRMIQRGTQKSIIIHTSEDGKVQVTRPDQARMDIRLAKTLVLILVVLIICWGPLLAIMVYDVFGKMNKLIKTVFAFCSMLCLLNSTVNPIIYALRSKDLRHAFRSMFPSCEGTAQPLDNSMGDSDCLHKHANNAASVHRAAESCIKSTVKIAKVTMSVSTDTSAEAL
Procedure: as §1

EGF = EGF (Homo sapiens, UniProt P00533); assay: MDS Panlabs screen: EGF; format: binding; conditions: Peptides
Sequence of EGF (P00533 25-1210): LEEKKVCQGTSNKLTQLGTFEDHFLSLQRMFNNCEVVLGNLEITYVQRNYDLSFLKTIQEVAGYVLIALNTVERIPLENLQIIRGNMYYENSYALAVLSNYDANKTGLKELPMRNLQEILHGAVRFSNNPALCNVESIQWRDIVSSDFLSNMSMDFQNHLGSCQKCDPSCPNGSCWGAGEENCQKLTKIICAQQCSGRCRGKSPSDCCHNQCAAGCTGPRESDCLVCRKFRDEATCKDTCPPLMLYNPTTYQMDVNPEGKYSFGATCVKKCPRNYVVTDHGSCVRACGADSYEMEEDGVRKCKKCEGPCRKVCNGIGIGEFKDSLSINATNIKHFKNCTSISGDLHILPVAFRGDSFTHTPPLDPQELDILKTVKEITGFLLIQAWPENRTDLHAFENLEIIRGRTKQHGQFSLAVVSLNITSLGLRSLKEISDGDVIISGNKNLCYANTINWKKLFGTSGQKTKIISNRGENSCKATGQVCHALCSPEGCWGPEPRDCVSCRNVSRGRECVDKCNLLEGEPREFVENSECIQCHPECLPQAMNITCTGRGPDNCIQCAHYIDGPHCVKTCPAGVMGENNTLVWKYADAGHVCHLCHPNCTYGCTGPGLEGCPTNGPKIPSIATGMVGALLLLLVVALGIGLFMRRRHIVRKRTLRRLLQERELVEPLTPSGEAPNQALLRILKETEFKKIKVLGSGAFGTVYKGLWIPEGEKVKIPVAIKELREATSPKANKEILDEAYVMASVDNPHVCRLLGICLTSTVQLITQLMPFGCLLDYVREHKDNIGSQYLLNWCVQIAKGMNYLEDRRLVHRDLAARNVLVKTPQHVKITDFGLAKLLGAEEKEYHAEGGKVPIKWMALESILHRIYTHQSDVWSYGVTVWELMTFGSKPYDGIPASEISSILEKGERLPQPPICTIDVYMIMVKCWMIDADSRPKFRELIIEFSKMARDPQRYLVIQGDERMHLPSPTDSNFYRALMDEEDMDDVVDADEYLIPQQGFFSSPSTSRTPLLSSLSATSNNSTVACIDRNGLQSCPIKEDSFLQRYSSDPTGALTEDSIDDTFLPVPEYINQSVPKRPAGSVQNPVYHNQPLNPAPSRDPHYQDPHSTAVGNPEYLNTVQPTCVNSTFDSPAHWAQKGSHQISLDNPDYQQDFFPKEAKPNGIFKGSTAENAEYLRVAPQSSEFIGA
Procedure: as §1

GLP-1 = GLP-1 (Homo sapiens, UniProt P43220); assay: MDS Panlabs screen: GLP-1; format: binding; conditions: Peptides
Sequence of GLP-1 (P43220 24-463): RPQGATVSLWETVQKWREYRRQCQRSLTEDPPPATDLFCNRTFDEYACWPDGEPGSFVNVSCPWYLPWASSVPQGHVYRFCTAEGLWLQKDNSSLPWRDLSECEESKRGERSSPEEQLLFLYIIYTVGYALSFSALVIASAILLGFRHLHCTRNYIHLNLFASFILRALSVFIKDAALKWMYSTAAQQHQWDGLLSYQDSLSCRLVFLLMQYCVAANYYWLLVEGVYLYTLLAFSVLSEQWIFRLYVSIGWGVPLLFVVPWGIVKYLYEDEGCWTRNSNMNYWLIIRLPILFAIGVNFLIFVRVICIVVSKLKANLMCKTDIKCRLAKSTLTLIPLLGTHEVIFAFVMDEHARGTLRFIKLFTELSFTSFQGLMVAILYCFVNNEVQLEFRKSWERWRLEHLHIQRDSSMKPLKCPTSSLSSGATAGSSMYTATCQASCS
Procedure: as §1

melanocortin MC4 = melanocortin MC4 (Homo sapiens, UniProt P32245); assay: MDS Panlabs screen: melanocortin MC4; format: binding; conditions: Peptides
Sequence of melanocortin MC4 (P32245 whole entry): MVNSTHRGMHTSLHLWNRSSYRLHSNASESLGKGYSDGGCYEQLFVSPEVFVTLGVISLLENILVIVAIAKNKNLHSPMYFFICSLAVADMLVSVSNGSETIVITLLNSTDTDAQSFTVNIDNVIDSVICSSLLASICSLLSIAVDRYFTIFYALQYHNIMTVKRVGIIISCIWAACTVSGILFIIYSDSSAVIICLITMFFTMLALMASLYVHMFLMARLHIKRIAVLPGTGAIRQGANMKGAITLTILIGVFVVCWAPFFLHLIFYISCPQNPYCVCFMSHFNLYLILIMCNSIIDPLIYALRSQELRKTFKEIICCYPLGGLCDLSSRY
Procedure: as §1

neurotensin = assay: MDS Panlabs screen: neurotensin; format: binding; conditions: Peptides
Procedure: as §1

opiate non-selective = assay: MDS Panlabs screen: opiate non-selective; format: binding; conditions: Peptides
Procedure: as §1

tachykinin NK1 = tachykinin NK1 (Homo sapiens, UniProt P25103); assay: MDS Panlabs screen: tachykinin NK1; format: binding; conditions: Peptides
Sequence of tachykinin NK1 (P25103 whole entry): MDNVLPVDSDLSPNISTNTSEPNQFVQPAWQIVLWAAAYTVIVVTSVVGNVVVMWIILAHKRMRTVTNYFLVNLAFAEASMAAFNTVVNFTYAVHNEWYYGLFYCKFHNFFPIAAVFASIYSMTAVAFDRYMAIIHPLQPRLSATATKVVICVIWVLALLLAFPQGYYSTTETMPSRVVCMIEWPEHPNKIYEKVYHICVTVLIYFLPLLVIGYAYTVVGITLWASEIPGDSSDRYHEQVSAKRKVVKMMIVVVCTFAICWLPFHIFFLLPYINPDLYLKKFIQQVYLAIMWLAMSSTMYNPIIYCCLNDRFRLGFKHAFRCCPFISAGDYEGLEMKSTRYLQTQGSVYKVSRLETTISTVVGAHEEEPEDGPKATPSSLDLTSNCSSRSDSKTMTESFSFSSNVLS
Procedure: as §1

tachykinin NK2 = tachykinin NK2 (Homo sapiens, UniProt P21452); assay: MDS Panlabs screen: tachykinin NK2; format: binding; conditions: Peptides
Sequence of tachykinin NK2 (P21452 whole entry): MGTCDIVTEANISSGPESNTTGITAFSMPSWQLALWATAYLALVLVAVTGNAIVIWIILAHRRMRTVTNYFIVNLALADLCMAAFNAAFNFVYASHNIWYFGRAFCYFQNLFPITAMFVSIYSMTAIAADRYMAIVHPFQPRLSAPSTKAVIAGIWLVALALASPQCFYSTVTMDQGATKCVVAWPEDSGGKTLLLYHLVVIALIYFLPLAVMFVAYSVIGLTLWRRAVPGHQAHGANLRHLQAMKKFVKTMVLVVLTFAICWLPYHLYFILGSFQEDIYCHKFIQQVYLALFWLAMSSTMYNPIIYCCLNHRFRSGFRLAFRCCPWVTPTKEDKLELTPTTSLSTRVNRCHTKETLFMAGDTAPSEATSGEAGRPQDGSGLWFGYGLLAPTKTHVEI
Procedure: as §1

TNF non-selective = assay: MDS Panlabs screen: TNF non-selective; format: binding; conditions: Peptides
Procedure: as §1

interleukin IL-1α = assay: MDS Panlabs screen: interleukin IL-1α; format: binding; conditions: Peptides
Procedure: as §1

[2] = cited from earlier work

Structure (SMILES): C=C(C)[C@@H]1CC[C@]2(C(=O)O)CC[C@]3(C)C(CC[C@@H]4[C@@]5(C)CC[C@H](O)C(C)(C)[C@@H]5CC[C@]43C)[C@@H]12 (some centres unmarked) [betulinic acid, Betulinic acid]
- startle response in the presence of the fear-cue (Sprague-Dawley rats; 1 mg/kg in peanut oil orally (gavage), 45-60 min after treatment (FIG. 4)): significantly attenuated the startle response in the presence of the fear-cue
- difference in startle amplitude (presence minus absence of the fear cue) (Sprague-Dawley rats; 1 mg/kg orally (gavage), vs peanut oil control (FIG. 4)): much lower
- entries into the open (anxiogenic) arm of the elevated plus maze (CD-1 strain of mice; CD-1 mice, 0.25 mg/kg i.p.): more often than controls
- entries into the open (anxiogenic) arm of the elevated plus maze (CD-1 strain of mice; CD-1 mice, 2.5 mg/kg i.p.): more often than controls
- proportion of time spent on the open arm of the maze (CD-1 strain of mice; CD-1 mice, 0.25 or 2.5 mg/kg i.p. (dose not singled out in the sentence)): increased significantly
- maximally effective dose (CD-1 strain of mice; mice, i.p., elevated plus maze, higher dose did not increase the effect further): 0.25 mg/kg
- proportion of time spent in the open arm of the elevated plus maze [1]: increased
- adverse effect on locomotor activity or pattern (Sprague Dawley rats): neither betulinic acid nor the methyl ester of betulinic acid had an adverse effect on locomotor activity or pattern
- affected by betulinic acid (MAO A): none of the following neurotransmitters or proteins were affected
- affected by betulinic acid (NE transporter): none of the following neurotransmitters or proteins were affected
- affected by betulinic acid (GABAA, agonist site): none of the following neurotransmitters or proteins were affected
- affected by betulinic acid (Glutamate non-selective): none of the following neurotransmitters or proteins were affected
- affected by betulinic acid (Histamine H2): none of the following neurotransmitters or proteins were affected
- affected by betulinic acid (5-HT1): none of the following neurotransmitters or proteins were affected
- affected by betulinic acid (cannabinoid C131): none of the following neurotransmitters or proteins were affected
- affected by betulinic acid (EGF): none of the following neurotransmitters or proteins were affected
- affected by betulinic acid (GLP-1): none of the following neurotransmitters or proteins were affected
- affected by betulinic acid (melanocortin MC4): none of the following neurotransmitters or proteins were affected
- affected by betulinic acid (neurotensin): none of the following neurotransmitters or proteins were affected
- affected by betulinic acid (opiate non-selective): none of the following neurotransmitters or proteins were affected
- affected by betulinic acid (tachykinin NK1): none of the following neurotransmitters or proteins were affected
- affected by betulinic acid (tachykinin NK2): none of the following neurotransmitters or proteins were affected
- affected by betulinic acid (TNF non-selective): none of the following neurotransmitters or proteins were affected
- affected by betulinic acid (interleukin IL-1α): none of the following neurotransmitters or proteins were affected
- toxicity in a Hippocratic screen ([2]; 200 mg/kg): non-toxic
- toxicity in a Hippocratic screen ([2]; 400 mg/kg): non-toxic
